Test results taken from paper PMC6656724 (Communications Biology, 2019).
Values joined by “and” are separate entries in the source; they are usually repeats but may differ in a detail not shown here. Equal values may be shown once.

Tests used:
[1] = tested on: KMO activity in the striatum; test: De novo 3-HK synthesis after intrastriatal [5-3H]-kynurenine; assay type: in vivo, Sprague–Dawley rats
Method: The prodrug (5 mg/kg) was administered intravenously to rats, immediately followed by an intrastriatal infusion of [^3H]-KYN. Tritiated KP metabolites were analysed after 1 h. A significant ~70% reduction (P < 0.01) in [^3H]-3-HK was observed (Fig. 3f) in parallel with minor increases in [^3H]-QUIN and […] (data not shown)—mirroring the results using a focal intracerebral injection of a KMO inhibitor[17].
The radioactive tracer method previously described by Guidetti et al. (1995)[31] was used to study acute KP metabolism in the brain in vivo. To this end, adult male Sprague–Dawley rats (weighing 270–300 g) were anesthetized with isoflurane using a vaporiser (induction dose 5%, maintenance dose 2%, v/v, in 100% oxygen) and placed in a stereotaxic frame. […] After thawing, tritiated KP metabolites were detected and analysed as described previously. The production of newly formed [^3H]-KYNA, [^3H]-3-HK and [^3H]-QUIN was expressed as a percentage of the total radioactivity recovered per striatum. […] The mobile phase was flown at 1.2 ml/min (Waters 515 HPLC Pump) through YMC-Pack Pro C18 (250 × 4.6 mm) column and detected with UV (Applied Biosystems 785A Absorbance Detector) at 254 nm then mixed with LabLogic FlowLogic U scintillation fluid flowing at 2.7 mL/min and radiation was detected (Berthold Technologies FlowStar LB514).

PfKMO = target: T1, PfKMO (Pseudomonas fluorescens, UniProt Q84HF5, C252S/C461S); test: Hydrogen peroxide production, o-dianisidine / horseradish peroxidase assay; assay type: biochemical; settings: presence and absence of L-Kyn
T1 construct: made in house; host or cells: E. coli BL21 (DE3)
Method: H2O2 production rates from PfKMO inhibitor complexes were performed using a horseradish peroxidase (HRP) assay. NADPH consumption rate was measured in the presence and absence of an excess of KMO inhibitors (400 μM). For determination of H2O2 production rates, PfKMO (0.1 μM) was incubated with 100 μM NADPH, 200 μM L-KYN, 400 μM o-dianisidine and ∼5 units HRP in the presence and absence of excess KMO inhibitors. The rate of oxidation of o-dianisidine by H2O2, catalysed by HRP, was monitored at 440 nm (Δε 440 nm = 11.3 mM^−1 cm^−1). To eliminate the L-Kyn competition binding effect, the H2O2 production rates of KMO inhibitors were also measured without L-Kyn with the same method.

MDR1 MDCK cell lines = test: in vitro; assay type: in vitro ADME, canine; settings: MDR1 MDCK; listed as Inhibitor 1
Method: (§1) internal standard at each timepoint. […]
(§2) including an analytical internal standard.
(§3) Apparent permeability (Papp) values were determined from the relationship: […]
(§4) Where V is the volume of each Transwell compartment (apical 125 µL, basolateral 600 µL), and concentrations are the relative MS responses for compound (normalized to internal standard) in the donor chamber before incubation and acceptor chamber at the end of the incubation. Area = area of cells exposed for drug transfer (0.33 cm 2).
(§5) Efflux ratios (Papp B>A / Papp A>B) were calculated for each compound from the […]
(§6) MDR1-MDCK cell line has been engineered to overexpress the efflux transporter, MDR1 (P-glycoprotein), and a finding of good permeability B>A, but poor […]
(§7) order to confirm the involvement of MDR1 in any efflux seen, an “ef fective efflux ratio” (EER) was calculated by comparing compound efflux ratios (ER) in the two cell types, i.e. EER = ER (MDR1-MDCK)/ ER (wild-type MDCK). This ratio illustrates the effect of the over-expressed MDR1 normalised for the background movement of compound through the wild-type cells.
(§8) Lucifer Yellow (LY) was added to the apical buffer in all wells to assess viability of the cell layer. As LY cannot freely permeate lipophilic barriers, a high degree of LY […]
(§9) validity of other wells on the plate.
(§10) Compound recovery from the wells was determined from MS responses (normalized to internal standard) in donor and acceptor chambers at the end of incubation compared to response in the donor chamber pre-incubation.

[2] = tested on: wild type MDCK cell lines; test: in vitro; assay type: in vitro ADME, canine; settings: wild type MDCK; listed as Inhibitor 1
Method: as §1, §2, §3, §4, §5, §6, §7, §8, §9, §10

T1 sequence (Q84HF5 whole entry C252S/C461S): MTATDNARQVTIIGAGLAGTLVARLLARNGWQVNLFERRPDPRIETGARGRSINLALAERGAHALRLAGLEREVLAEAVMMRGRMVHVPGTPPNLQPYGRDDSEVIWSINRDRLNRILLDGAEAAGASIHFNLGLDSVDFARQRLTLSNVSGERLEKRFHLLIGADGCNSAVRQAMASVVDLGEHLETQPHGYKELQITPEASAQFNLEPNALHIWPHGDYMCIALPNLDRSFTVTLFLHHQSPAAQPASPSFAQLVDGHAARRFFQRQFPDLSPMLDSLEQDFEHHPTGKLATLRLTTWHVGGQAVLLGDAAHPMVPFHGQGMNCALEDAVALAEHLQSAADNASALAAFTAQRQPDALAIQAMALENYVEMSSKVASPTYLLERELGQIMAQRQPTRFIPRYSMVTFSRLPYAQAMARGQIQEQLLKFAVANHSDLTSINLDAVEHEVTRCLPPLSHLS

Structure (SMILES)	Reduction in [3H]-3-HK ([1]; rat striatum, 5 mg/kg i.v., 1 h, vs vehicle)	Percentage of [5-3H]-KYN that is metabolized into [3H]-3-HK ([1]; striatum of awake rats, 1 h after 5 mg/kg i.v., single rats, listed as Prodrug 1b)	H2O2 production (PfKMO)	Papp A>B Mean (MDR1 MDCK cell lines)	Papp A>B Mean [2]
CCOC(=O)CN1C(=O)COc2cc(C)c(Cl)c(C)c21 [1b]	~ 70%	0.72% and 0.39% and 1.91% and 0.11% and 1.44% and 0.83% and 2.24% and 1.06% and 1.38% and 0.19%			
Cc1cc2c(c(C)c1Cl)N(CC(=O)O)C(=O)CO2 [compound 1, (6-chloro-5,7-dimethyl-3-oxo-2,3-dihydro-4H-1,4-benzoxazin-4-yl) acetic acid]			not detected	~ 15 x 10-6 cm/sec	~ 15 x 10-6 cm/sec
